# Patent US20260297105A1, “RAF-MEK PROTEIN COMPLEX MODULATORS AND METHODS OF USE THEREOF” (GANDEEVA THERAPEUTICS, INC., priority 2023, published 2026)
# Where two headings read alike, the source gives them in different places.
# Tests used:
# BRAF-MEK1 = experiment: BRAF-MEK TR-FRET assay, stabilization of MEK1 and BRAF interaction; format: binding; settings: read-out: BRAF-MEK TR-FRET Assay (EC50, fold stabilization)
# Outline: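 His-MEK1 (full-length, E. coli) at 10 nM with GST-BRAF at 4 nM, 1 h at 25° C in pH 7.5 Tris buffer with 5 mM MgCl2 and 100 μM ATP; anti-His-Tb/anti-GST-XL665 added for 1 h more. 665/620 FRET ratio over DMSO gives fold stabilization; EC50 from 4-parameter fit, duplicate wells.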
# MEK1 = target: T1, MEK1 (Homo sapiens, UniProt Q02750); experiment: MEK1 kinase cascade assay (ADP-Glo), inhibition of MEK1 kinase activity; format: biochemical
# T1 construct: purchased SignalChem M02-14H
# Outline: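 Compounds were preincubated 20 mins at 25° C with 25 nM BRAF(445-723) in 10 mM HEPES pH 7.5, 5 mM MgCl2, 2 mM CHAPS, 1 mM DTT, then 6.25 nM MEK1, 0.5 μM ERK1 and 1 mM ATP were added for 1 hr at 25° C, with 1% DMSO. ADP-Glo luminescence was normalized to DMSO and 1 μM Trametinib; IC50 came from 4-parameter fits of duplicates.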
# p-ERK1/2 in HCT116 cells = experiment: AlphaLISA p-ERK assay, cellular inhibition of ERK phosphorylation in HCT116 cells; format: cell-based; settings: Homo sapiens, HCT-116, 2 hours treatment, PMA stimulation 30 mins
# Experimental: Cell culture: HCTI 16, HT-29, and NCI-H292 cells were acquired from American Type Culture Collection (ATCC). HCT116 and HT-29 cells were maintained in ATCC-formulated McCoy's 5a Medium Modified supplemented with 10% fetal bovine serum, NCI-H292 cells were cultured in ATCC formulated RPMI-1640 supplemented with 10% fetal bovine serum. All cells were maintained at 37° C., 5% CO2.
# Efficacy of exemplary compounds in cellular inhibition of ERK phosphorylation: Phosphorylation status of ERK1/2 (p-ERK) was used as a readout for inhibition of BRAF-MEK pathway. p-ERK was detected using an immunoassay for quantitative detection of phospho-ERK 1/2 (phosphorylated on Thr202/Tyr204 in ERK1, or Thr185/Tyr187 in ERK2), such as the AlphaLISA® SureFire® Ultra™ p-ERK1/2 (Thr202/Tyr204) kit (Perkin Elmer). HCT116 cells were plated at 10,000 cells per well in 384-well TC-treated plates (Coming). Cells were plated for 24 hours, the medium was then aspirated and cells were treated with vehicle (DMSO) or test compounds (0.1% DMSO in final volume) prepared in serum free, phenol red free medium for 2 hours. Following treatment, cells were stimulated with PMA (1.25 μM/well) for 30 mins after which the medium was aspirated, and the cells were lysed for 10 mins with 1× lysis buffer supplemented with Halt Protease and Phosphatase Inhibitor Cocktail (Thermo Fisher). The lysate was transferred to a 384 well Alpha-plate (PerkinElmer) and incubated for 1 hour with acceptor bead mix followed by 1 hour incubation with donor bead mix. After incubation, the plate was read on a Cytation5 microplate reader (Agilent). % inhibition as a function of compound concentration from 3 replicate wells was fit with a 4-parameter logistic curve using GraphPad Prism or CDD Vault to derive IC50 values.
# In this table, for the BRAF ADP Glo kinase assay, “A” indicates IC50 of less than 5 nM; “B” indicates IC50 of between 5 nM to 50 nM; and “C” indicates IC50 of between 50 nM to 500 nM. “D” indicates IC50 of greater than 500 nM. For the BRAF-MEK TR-FRET assay, “A” indicates EC50 of less than 50 nM; “B” indicates EC50 of between 50 nM to 200 nM; and “C” indicates EC50 of between 200 nM to 1 μM. “D′” indicates EC50 of greater than 1 μM. For the AlphaLisa P-ERK assay, “A” indicates IC50 of less than 1 nM; “B” indicates IC50 of between 1 nM to 10 nM; and “C” indicates IC50 of between 10 nM to 100 nM. “D” indicates IC50 of greater than 100 nM. For the cell viability assay, “A” indicates IC50 of less than 1 nM; “B” indicates IC50 of between 1 nM to 10 nM; and “C” indicates IC50 of between 10 nM to 100 nM. “D” indicates IC50 of greater than 100 nM.
# NCI-H292 cells = experiment: Cell viability assay (CellTiter-Glo), NCI-H292; format: cell-based; settings: Homo sapiens, 72 hrs, read-out: Cell Viability Assay: IC50 Determination NCI-H292
# Outline: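 Cells seeded at 2,000 per well in RPMI-1640 with 10% FBS, treated 24 h later with compound (0.1% DMSO) for 72 h. Viability read by CellTiter-Glo luminescence; IC50 from 4-parameter logistic fit of % inhibition over 3 replicate wells.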
# [1] = 4 nM BRAF, 10 nM MEK, 100 μM ATP, 1 hr at 25° C.
# [2] = 25 nM BRAF, 6.25 nM MEK1, 0.5 μM ERK, 1 mM ATP, 20 min preincubation, 1 hr at 25° C., read-out: BRAF ADP Glo kinase assay V3 (IC50)
# T1 sequence (Q02750 whole entry): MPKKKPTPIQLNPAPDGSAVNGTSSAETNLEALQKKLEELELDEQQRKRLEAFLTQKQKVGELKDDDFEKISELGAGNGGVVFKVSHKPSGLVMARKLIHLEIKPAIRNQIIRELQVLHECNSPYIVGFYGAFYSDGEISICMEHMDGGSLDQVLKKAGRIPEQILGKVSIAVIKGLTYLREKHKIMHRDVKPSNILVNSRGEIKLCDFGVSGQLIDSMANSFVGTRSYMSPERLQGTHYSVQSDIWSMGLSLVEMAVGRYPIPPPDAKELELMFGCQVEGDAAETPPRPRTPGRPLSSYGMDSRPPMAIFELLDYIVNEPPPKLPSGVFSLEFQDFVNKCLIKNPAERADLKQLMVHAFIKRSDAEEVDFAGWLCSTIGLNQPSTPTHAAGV
# T1 sequence (P15056 445-723 partner limits assumed): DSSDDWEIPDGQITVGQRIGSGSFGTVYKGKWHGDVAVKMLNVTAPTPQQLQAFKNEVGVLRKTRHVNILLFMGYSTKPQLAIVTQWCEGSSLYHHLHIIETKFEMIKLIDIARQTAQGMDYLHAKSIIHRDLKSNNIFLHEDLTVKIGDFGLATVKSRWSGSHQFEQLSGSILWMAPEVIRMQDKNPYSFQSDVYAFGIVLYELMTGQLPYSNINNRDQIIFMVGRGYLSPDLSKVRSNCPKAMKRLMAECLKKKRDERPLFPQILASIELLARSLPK
SMILES,EC50 (BRAF-MEK1; [1]),IC50 (MEK1; [2]),IC50 (p-ERK1/2 in HCT116 cells),IC50 (NCI-H292 cells),EC50 (BRAF-MEK1; 60 min),IC50 (MEK1; BRAF ADP Glo kinase assay V3 (IC50))
"CNS(=O)(=O)Nc1cccc(CN2C(=O)Oc3cc(Oc4cccnn4)ccc3C23COC3)c1F [Compound 81, 3-({2-fluoro-3-[(methylsulfamoyl)amino]phenyl}methyl)-7-(pyridazin-3-yloxy)-2,3-dihydrospiro[1,3-benzoxazine-4,3′-oxetan]-2-one]",50 to 200 nM,< 5 nM,1 to 10 nM,1 to 10 nM,–,–
"CNS(=O)(=O)Nc1cccc(CN2C(=O)Oc3cc(Oc4cccnn4)cc(F)c3[C@H]2C)c1F (single isomer, unassigned) [Compound 57]",50 to 200 nM,5 to 50 nM,1 to 10 nM,1 to 10 nM,–,–
"CNS(=O)(=O)Nc1cccc(CN2C(=O)Oc3cc(Oc4cccnn4)ccc3C23CCC3)c1F [Compound 41, 3-({2-fluoro-3-[(methylsulfamoyl)amino]phenyl}methyl)-7-(pyridazin-3-yloxy)-2,3-dihydrospiro[1,3-benzoxazine-4,1′-cyclobutan]-2-one]",< 50 nM,< 5 nM,1 to 10 nM,1 to 10 nM,–,–
"CNS(=O)(=O)Nc1cccc(CN2Cc3c(F)cc(OC(=O)N(C)C)cc3OC2=O)c1F [Compound 118, 5-fluoro-3-(2-fluoro-3-((N-methylsulfamoyl)amino)benzyl)-2-oxo-3,4-dihydro-2H-benzo[e][1,3]oxazin-7-yl dimethylcarbamate]",50 to 200 nM,< 5 nM,1 to 10 nM,< 1 nM,–,–
CNS(=O)(=O)Nc1cccc(CN2C(=O)Oc3c(ccc(Oc4cccnn4)c3F)C23COC3)c1F [Compound 42],50 to 200 nM,< 5 nM,1 to 10 nM,1 to 10 nM,–,–
"CNS(=O)(=O)Nc1cccc(CN2C(=O)Oc3cc(Oc4cccnn4)ccc3[C@H]2C)c1F (single isomer, unassigned) [Compound 71]",200 to 1000 nM,5 to 50 nM,10 to 100 nM,1 to 10 nM,–,–
"CNS(=O)(=O)Nc1cccc(CN2Cc3cc(Cl)c(OC(=O)N(C)C)cc3OC2=O)c1F [Compound 149, 6-chloro-3-(2-fluoro-3-((N-methylsulfamoyl)amino)benzyl)-2-oxo-3,4-dihydro-2H-benzo[e][1,3]oxazin-7-yl dimethylcarbamate]",–,–,1 to 10 nM,1 to 10 nM,50 to 200 nM,< 5 nM
"CNS(=O)(=O)Nc1cccc(CN2C(=O)Oc3cc(Oc4cccnn4)c(F)cc3[C@H]2C)c1F (single isomer, unassigned) [Compound 67]",200 to 1000 nM,5 to 50 nM,1 to 10 nM,1 to 10 nM,–,–
CNS(=O)(=O)Nc1cccc(CN2C(=O)Oc3c(ccc(Oc4ncco4)c3F)C23COC3)c1F [Compound 82],200 to 1000 nM,< 5 nM,1 to 10 nM,1 to 10 nM,–,–
"CN(C)S(=O)(=O)Nc1cccc(CN2C(=O)Oc3c(ccc(Oc4cccnn4)c3F)C23COC3)c1F [Compound 40, 3-({3-[(dimethylsulfamoyl)amino]-2-fluorophenyl}methyl)-8-fluoro-7-(pyridazin-3-yloxy)-2,3-dihydrospiro[1,3-benzoxazine-4,3′-oxetan]-2-one]",50 to 200 nM,5 to 50 nM,10 to 100 nM,1 to 10 nM,–,–
"CNS(=O)(=O)Nc1cccc(CN2C(=O)Oc3cc(Oc4cccnn4)c(F)cc3[C@@H]2C)c1F (single isomer, unassigned) [Compound 66]",200 to 1000 nM,< 5 nM,1 to 10 nM,1 to 10 nM,–,–
"CNS(=O)(=O)Nc1cccc(CN2C(=O)Oc3cc(Oc4ncco4)ccc3C23COC3)c1F [Compound 95, 3-({2-fluoro-3-[(methylsulfamoyl)amino]phenyl}methyl)-7-(1,3-oxazol-2-yloxy)-2,3-dihydrospiro[1,3-benzoxazine-4,3′-oxetan]-2-one]",50 to 200 nM,< 5 nM,1 to 10 nM,1 to 10 nM,–,–
"[2H]C1([2H])c2ccc(Oc3cccnn3)cc2OC(=O)N1Cc1cccc(NS(=O)(=O)NC)c1F [Compound 52, 3-{[2-fluoro-3-(methylaminosulfonylamino)phenyl]methyl}-7-(3-pyridazinyloxy)(4,4-^2H2)-3,4-dihydro-2H-1,3-benzoxazin-2-one]",50 to 200 nM,5 to 50 nM,1 to 10 nM,1 to 10 nM,–,–
"O=C1Oc2cc(Oc3cccnn3)c(F)cc2C2(COC2)N1Cc1cccc(NS(=O)(=O)C2CC2)c1F [Compound 53, N-(2-fluoro-3-{[6-fluoro-2-oxo-7-(pyridazin-3-yloxy)-2,3-dihydrospiro[1,3-benzoxazine-4,3′-oxetan]-3-yl]methyl}phenyl)cyclopropanesulfonamide]",50 to 200 nM,5 to 50 nM,10 to 100 nM,1 to 10 nM,–,–
"CNS(=O)(=O)Nc1nccc(CN2C(=O)Oc3cc(Oc4ncco4)ccc3C23COC3)c1F [Compound 68, 3-({3-fluoro-2-[(methylsulfamoyl)amino]pyridin-4-yl}methyl)-7-(1,3-oxazol-2-yloxy)-2,3-dihydrospiro[1,3-benzoxazine-4,3′-oxetan]-2-one]",50 to 200 nM,5 to 50 nM,10 to 100 nM,1 to 10 nM,–,–
CNS(=O)(=O)Nc1cccc(CN2Cc3c(F)cc(Oc4ncccn4)cc3OC2=O)c1F [Compound 117],200 to 1000 nM,5 to 50 nM,1 to 10 nM,10 to 100 nM,–,–
